Results taken from US20220340629A1, “Myosin Derived Peptides and Related Compounds with Anticoagulant Activities” (THE SCRIPPS RESEARCH INSTITUTE, priority 0001, published 2022).
Starred links: 1 amine or outer side, 2 acyl side, 3 side chain; linkers in the order of their positions; H or OH if unused. Positions of bridges follow the written chain, without caps; N, C: chain ends. Residues, ends and D or L forms follow the SMILES beside them. Suc = O=C(CCC(=O)[*:2])[*:1]

test system: thrombin generation in human platelet poor plasma with skeletal muscle myosin; test: Assay 2A: thrombin generation, recalcification of human platelet poor plasma + myosin; assay type: biochemical; settings: human platelet poor plasma 30%, myosin 50 nM, CaCl2 10 mmol/L; read-out: 2A (recalcification +myosin)
Protocol: Activities of the various peptides and derivative compounds were also examined via assays using recalcification of human plasma. [One of] these assay format (2A) involves monitoring thrombin generation in platelet poor plasma (PPP). Specifically, pooled normal human platelet poor plasma (PPP) (obtained from George King Bio Medical Inc., Overland Park, Kans.) (30%) was incubated with skeletal muscle myosin at 50 nM in the presence of peptide in DMSO or DMSO alone for 5 min at 37° C. Then, fluorogenic thrombin substrate solution (Z-Gly-Gly-Arg-AMC) (I-1140) with CaCl2 (10 mmol/L final) alone was added to the reaction mixture (total 110 μl) to initiate coagulation. Thrombin generation was followed continuously for 25 min using SPECTRAmax GEMINI XS fluorometer (Molecular Devices, Sunnyvale, Calif.) with excitation and emission wavelengths set at 360 and 460 nm, respectively. The first derivative of fluorescence versus time was used to produce thrombin generation curves with the correction for substrate consumption and inner filter effect. For this assay 96 well plate (total 110 μL) or 384 well plates (total 30 μL) were used.
Activities obtained from Assay 2A (recalcification of human plasma in the presence of myosin) were used to rank the various peptides listed in Table 3. As noted above, this assay monitors recalcification of plasma to stimulate thrombin generation. In this assay, potency of the compounds was determined as the peptide concentration for 50% inhibition of thrombin generation, defined as “IC50”.

Q: `CC[C@H](C)[C@H](NC(=O)[C@H](C)NC(=O)[C@H](CCC(=O)O)NC(=O)[C@H](CCCNC(=N)N)NC(=O)[C@H](CCCNC(=N)N)NC(=O)[C@H](CCC(=O)O)NC(=O)[C@@H]1CCCCNC(=O)CCC(=O)NCCCC[C@@H]2NC(=O)[C@H](C)NC(=O)[C@H](CC(C)C)NC(=O)[C@H](Cc3ccccc3)NC(=O)[C@@H](NC(=O)[C@H](CCCNC(=N)N)NC(=O)[C@H](CS)NC(=O)[C@H](CCCNC(=N)N)NC(=O)[C@H](C)N)CCCCNC(=O)CCC(=O)NCCCC[C@H](NC(=O)[C@H](CCC(=O)O)NC(=O)[C@H](C(C)C)NC2=O)C(=O)N[C@@H](CCC(N)=O)C(=O)N[C@@H](CCCNC(=N)N)C(=O)N[C@@H](CCSC)C(=O)N1)C(=O)N[C@@H](Cc1ccccc1)C(=O)N[C@@H](CS)C(=O)N[C@H](C(=O)N[C@@H](CCC(N)=O)C(=O)N[C@@H](Cc1ccc(O)cc1)C(=O)N[C@@H](CC(N)=O)C(=O)N[C@H](C(=O)N[C@@H](CCCNC(=N)N)C(=O)N[C@@H](CO)C(=O)N[C@@H](Cc1ccccc1)C(=O)N[C@@H](CCSC)C(=O)N[C@@H](CC(N)=O)C(=O)N[C@H](C(=O)N[C@@H](CCCCN)C(=O)N[C@@H](Cc1c[nH]cn1)C(=O)N[C@@H](Cc1c[nH]c2ccccc12)C(=O)N1CCC[C@H]1C(=O)N[C@@H](Cc1c[nH]c2ccccc12)C(N)=O)C(C)C)[C@@H](C)CC)[C@@H](C)CC` [HC154] (H-ARCRKFLAKVEKQRMKERREAIFCIQYNIRSFMNVKHWPW-NH2; linker 5-12, 9-16 via Suc (inferred); N-terminus and C-terminus assumed) was tested. Which IC50 did it give?
A: Its IC50 is 9.4 µM.

Q: Which IC50 does the source give for `CC[C@H](C)[C@H](NC(=O)[C@H](C)NC(=O)[C@H](CCC(=O)O)NC(=O)[C@H](CCCNC(=N)N)NC(=O)[C@H](CCCNC(=N)N)NC(=O)[C@H](CCC(=O)O)NC(=O)[C@@H]1CCCCNC(=O)CCC(=O)NCCCC[C@@H]2NC(=O)[C@H](C)NC(=O)[C@H](CC(C)C)NC(=O)[C@@H](NC(=O)CNC(=O)[C@H](CCCNC(=N)N)NC(=O)[C@H](CS)NC(=O)[C@H](CCCNC(=N)N)NC(=O)[C@H](C)N)CCCCNC(=O)CCC(=O)NCCCC[C@H](NC(=O)[C@H](Cc3ccc(O)cc3)NC(=O)[C@H](CCC(=O)O)NC(=O)[C@H](C(C)C)NC2=O)C(=O)N[C@@H](CCCNC(=N)N)C(=O)N[C@@H](CCSC)C(=O)N1)C(=O)N[C@@H](Cc1ccccc1)C(=O)N[C@@H](CS)C(=O)N[C@H](C(=O)N[C@@H](CCC(N)=O)C(=O)N[C@@H](Cc1ccc(O)cc1)C(=O)N[C@@H](CC(N)=O)C(=O)N[C@H](C(=O)N[C@@H](CCCNC(=N)N)C(=O)N[C@@H](CO)C(=O)N[C@@H](Cc1ccccc1)C(=O)N[C@@H](CCSC)C(=O)N[C@@H](CC(N)=O)C(=O)N[C@H](C(=O)N[C@@H](CCCCN)C(=O)N[C@@H](Cc1c[nH]cn1)C(=O)N[C@@H](Cc1c[nH]c2ccccc12)C(=O)N1CCC[C@H]1C(=O)N[C@@H](Cc1c[nH]c2ccccc12)C(N)=O)C(C)C)[C@@H](C)CC)[C@@H](C)CC` [HC155] (H-ARCRGKLAKVEYKRMKERREAIFCIQYNIRSFMNVKHWPW-NH2; linker 6-13, 9-16 via Suc (inferred); N-terminus and C-terminus assumed) here?
A: The IC50 was 9.5 µM.

Q: `CC[C@H](C)[C@H](NC(=O)[C@H](C)NC(=O)[C@H](CCC(=O)O)NC(=O)[C@H](CCCNC(=N)N)NC(=O)[C@H](CCCNC(=N)N)NC(=O)[C@@H]1CCCCNC(=O)CCC(=O)NCCCC[C@@H]2NC(=O)[C@@H](NC(=O)[C@H](C)NC(=O)[C@H](CC(C)C)NC(=O)[C@H](Cc3ccccc3)NC(=O)CNC(=O)[C@H](CCCNC(=N)N)NC(=O)[C@H](CS)NC(=O)[C@H](CCCNC(=N)N)NC(=O)[C@H](C)N)CCCCNC(=O)CCC(=O)NCCCC[C@H](NC(=O)[C@H](CCSC)NC(=O)[C@H](CCCNC(=N)N)NC(=O)[C@H](CCC(N)=O)NC(=O)[C@H](Cc3ccc(O)cc3)NC(=O)[C@H](CCC(=O)O)NC2=O)C(=O)N1)C(=O)N[C@@H](Cc1ccccc1)C(=O)N[C@@H](CS)C(=O)N[C@H](C(=O)N[C@@H](CCC(N)=O)C(=O)N[C@@H](Cc1ccc(O)cc1)C(=O)N[C@@H](CC(N)=O)C(=O)N[C@H](C(=O)N[C@@H](CCCNC(=N)N)C(=O)N[C@@H](CO)C(=O)N[C@@H](Cc1ccccc1)C(=O)N[C@@H](CCSC)C(=O)N[C@@H](CC(N)=O)C(=O)N[C@H](C(=O)N[C@@H](CCCCN)C(=O)N[C@@H](Cc1c[nH]cn1)C(=O)N[C@@H](Cc1c[nH]c2ccccc12)C(=O)N1CCC[C@H]1C(=O)N[C@@H](Cc1c[nH]c2ccccc12)C(N)=O)C(C)C)[C@@H](C)CC)[C@@H](C)CC` [HC156] (H-ARCRGFLAKKEYQRMKKRREAIFCIQYNIRSFMNVKHWPW-NH2; linker 9-16, 10-17 via Suc (inferred); N-terminus and C-terminus assumed) was tested. Which IC50 did it give?
A: Its IC50 is 9.3 µM.

Q: With `CC[C@H](C)[C@H](NC(=O)[C@H](C)NC(=O)[C@H](CCC(=O)O)NC(=O)[C@@H]1CCCCNC(=O)CCC(=O)NCCCC[C@@H]2NC(=O)[C@H](CCC(=O)O)NC(=O)[C@H](C(C)C)NC(=O)[C@@H](NC(=O)[C@H](C)NC(=O)[C@H](CC(C)C)NC(=O)[C@H](Cc3ccccc3)NC(=O)CNC(=O)[C@H](CCCNC(=N)N)NC(=O)[C@H](CS)NC(=O)[C@H](CCCNC(=N)N)NC(=O)[C@H](C)N)CCCCNC(=O)CCC(=O)NCCCC[C@H](NC(=O)[C@H](CCSC)NC(=O)[C@H](CCCNC(=N)N)NC(=O)[C@H](CCC(N)=O)NC2=O)C(=O)N[C@@H](CCC(=O)O)C(=O)N[C@@H](CCCNC(=N)N)C(=O)N1)C(=O)N[C@@H](Cc1ccccc1)C(=O)N[C@@H](CS)C(=O)N[C@H](C(=O)N[C@@H](CCC(N)=O)C(=O)N[C@@H](Cc1ccc(O)cc1)C(=O)N[C@@H](CC(N)=O)C(=O)N[C@H](C(=O)N[C@@H](CCCNC(=N)N)C(=O)N[C@@H](CO)C(=O)N[C@@H](Cc1ccccc1)C(=O)N[C@@H](CCSC)C(=O)N[C@@H](CC(N)=O)C(=O)N[C@H](C(=O)N[C@@H](CCCCN)C(=O)N[C@@H](Cc1c[nH]cn1)C(=O)N[C@@H](Cc1c[nH]c2ccccc12)C(=O)N1CCC[C@H]1C(=O)N[C@@H](Cc1c[nH]c2ccccc12)C(N)=O)C(C)C)[C@@H](C)CC)[C@@H](C)CC` [HC157] (H-ARCRGFLAKVEKQRMKERKEAIFCIQYNIRSFMNVKHWPW-NH2; linker 9-16, 12-19 via Suc (inferred); N-terminus and C-terminus assumed) as the molecule, how does the IC50 read?
A: Its IC50 is 11 µM.

Q: How did the IC50 turn out when `CC[C@H](C)[C@H](NC(=O)[C@H](C)NC(=O)[C@@H]1CCCCNC(=O)CCC(=O)NCCCC[C@@H]2NC(=O)[C@H](Cc3ccc(O)cc3)NC(=O)[C@H](CCC(=O)O)NC(=O)[C@H](C(C)C)NC(=O)[C@@H](NC(=O)[C@H](C)NC(=O)[C@H](CC(C)C)NC(=O)[C@H](Cc3ccccc3)NC(=O)CNC(=O)[C@H](CCCNC(=N)N)NC(=O)[C@H](CS)NC(=O)[C@H](CCCNC(=N)N)NC(=O)[C@H](C)N)CCCCNC(=O)CCC(=O)NCCCC[C@H](NC(=O)[C@H](CCSC)NC(=O)[C@H](CCCNC(=N)N)NC2=O)C(=O)N[C@@H](CCC(=O)O)C(=O)N[C@@H](CCCNC(=N)N)C(=O)N[C@@H](CCCNC(=N)N)C(=O)N1)C(=O)N[C@@H](Cc1ccccc1)C(=O)N[C@@H](CS)C(=O)N[C@H](C(=O)N[C@@H](CCC(N)=O)C(=O)N[C@@H](Cc1ccc(O)cc1)C(=O)N[C@@H](CC(N)=O)C(=O)N[C@H](C(=O)N[C@@H](CCCNC(=N)N)C(=O)N[C@@H](CO)C(=O)N[C@@H](Cc1ccccc1)C(=O)N[C@@H](CCSC)C(=O)N[C@@H](CC(N)=O)C(=O)N[C@H](C(=O)N[C@@H](CCCCN)C(=O)N[C@@H](Cc1c[nH]cn1)C(=O)N[C@@H](Cc1c[nH]c2ccccc12)C(=O)N1CCC[C@H]1C(=O)N[C@@H](Cc1c[nH]c2ccccc12)C(N)=O)C(C)C)[C@@H](C)CC)[C@@H](C)CC` [HC158] (H-ARCRGFLAKVEYKRMKERRKAIFCIQYNIRSFMNVKHWPW-NH2; linker 9-16, 13-20 via Suc (inferred); N-terminus and C-terminus assumed) was run?
A: The IC50 was 5.8 µM.

Q: With `CC[C@H](C)[C@@H]1NC(=O)[C@H](C)NC(=O)[C@@H](NC(=O)[C@H](CCCNC(=N)N)NC(=O)[C@H](CCCNC(=N)N)NC(=O)[C@H](CCC(=O)O)NC(=O)[C@@H]2CCCCNC(=O)CCC(=O)NCCCC[C@H](NC(=O)[C@H](C)NC(=O)[C@H](CC(C)C)NC(=O)[C@H](Cc3ccccc3)NC(=O)CNC(=O)[C@H](CCCNC(=N)N)NC(=O)[C@H](CS)NC(=O)[C@H](CCCNC(=N)N)NC(=O)[C@H](C)N)C(=O)N[C@@H](C(C)C)C(=O)N[C@@H](CCC(=O)O)C(=O)N[C@@H](Cc3ccc(O)cc3)C(=O)N[C@@H](CCC(N)=O)C(=O)N[C@@H](CCCNC(=N)N)C(=O)N[C@@H](CCSC)C(=O)N2)CCCCNC(=O)CCC(=O)NCCCC[C@@H](C(=O)N[C@@H](CC(N)=O)C(=O)N[C@H](C(=O)N[C@@H](CCCNC(=N)N)C(=O)N[C@@H](CO)C(=O)N[C@@H](Cc2ccccc2)C(=O)N[C@@H](CCSC)C(=O)N[C@@H](CC(N)=O)C(=O)N[C@H](C(=O)N[C@@H](CCCCN)C(=O)N[C@@H](Cc2c[nH]cn2)C(=O)N[C@@H](Cc2c[nH]c3ccccc23)C(=O)N2CCC[C@H]2C(=O)N[C@@H](Cc2c[nH]c3ccccc23)C(N)=O)C(C)C)[C@@H](C)CC)NC(=O)[C@H](CCC(N)=O)NC(=O)[C@H]([C@@H](C)CC)NC(=O)[C@H](CS)NC(=O)[C@H](Cc2ccccc2)NC1=O` [HC159] (H-ARCRGFLAKVEYQRMKERRKAIFCIQKNIRSFMNVKHWPW-NH2; linker 9-16, 20-27 via Suc (inferred); N-terminus and C-terminus assumed) as the molecule, how does the IC50 read?
A: Its IC50 is 13.3 µM.
